Experimental data reported in PMC4496089, “Screening for FtsZ Dimerization Inhibitors Using Fluorescence Cross-Correlation Spectroscopy and Surface Resonance Plasmon Analysis” (PLoS ONE, 2015).
Converted amounts (≈) assume the structure as drawn. “Also recorded” adds a separate entry of the source. Read-outs that look alike come from different tables or passages of the source.

Columns and labels:
[1] = tested on: S. aureus FtsZ (FtsZ^K175D_N-terminal-EGFP and FtsZ_C-terminal-mCherry); assay: FCCS screening for inhibition of GTP-dependent head-to-tail dimerization of fragmented FtsZ; type: biochemical, Staphylococcus aureus; conditions: from FCCS binding ratio; chemical 20 or 100 μM, GTP 2 mM, 30 min; mean (SD), n = 3
Procedure: The purified FtsZ^K175D_N-terminal-EGFP and FtsZ_C-terminal-mCherry were mixed in 0.44–0.85 μM each in a buffer composed of 50 mM Tris-HCl [pH 8.0], 500 mM Na2SO4 and 5 mM MgCl2. Mixed samples were dispensed as 48.5 μL aliquots into a 384-well glass bottom microplate (Olympus) and a 0.5 μL aliquot of the chemical at a concentration of 2 or 10 mM was added to each well. The final concentration of the chemicals was 20 or 100 μM. After mixing, FCCS measurement was performed (premeasurement, data not shown). After premeasurement of FCCS, 1 μL of GTP (100 mM) was added to each well (final concentration: 2 mM). After mixing and 30 min incubation at room temperature, FCCS measurement was performed. Using samples purified on a different day, independent screening was performed 3 times.
The data acquired from FCCS were analyzed using ZEN software (Zeiss, Germany). The fluorescence autocorrelation functions from the green, G G (τ), and red channels, G R (τ), and the fluorescence cross-correlation functions, G C (τ) were calculated according to the normalized correlation function. GG(τ)=1+⟨δIG(t)⋅δIG(t+τ)⟩/⟨IG(t)⟩⋅⟨IG(t)⟩ (1) GR(τ)=1+⟨δIR(t)⋅δIR(t+τ)⟩/⟨IR(t)⟩⋅⟨IR(t)⟩ (2) GC(τ)=1+⟨δIG(t)⋅δIR(t+τ)⟩/⟨IG(t)⟩⋅⟨IR(t)⟩ (3) where τ denotes the time delay, I G is the fluorescent intensity of the green channel, and I R is the fluorescent intensity of the red channel. The acquired autocorrelations were fitted using a two-component model, and cross-correlation was fitted using a one-component model. G(τ)=1+1−Ftriplet+Ftripletexp(−τ/τtrplet)/N(1−Ftriplet)×((Ffast/1+τ/τfast)1/1+τ/s^2τfast+(Fslow/1+τ/τslow)1/1+τ/s^2τslow) (4) where F triplet is the average fraction of triplet state molecules (in the fitting of cross-correlation, assuming F triplet is 0), τ triplet is the triplet relaxation time, and F fast and F slow are the fractions of the fast and slow components, respectively. τ fast and τ slow are the diffusion times of the fast and slow components, respectively. In the fitting of G G (τ), τ fast was fixed in the range from 100 to 200 μs. In the fitting of G R (τ), τ fast was fixed in the range from 200 to 300 μs. N is the average number of fluorescent particles in the excitation-detection volume defined by radius w, z is half of the long axis of the confocal volume element, and s is the structural parameter representing the ratio s = z/w. The values of w i (i = G or R) are determined from the diffusion coefficients of the rhodamine 6G and Alexa Fluor 594 used as standard dyes, respectively.
The average number calculated from autocorrelation N G and N R and complex cross-correlated particles N C is given by NG=1/GG(0)−1 (5) NR=1/GR(0)−1 (6) NC=GC(0)−1/(GR(0)−1)⋅(GG(0)−1) (7)
The binding ratio (BR), which directly indicates the tendency of interaction between FtsZ^K175D_N-terminal-EGFP and FtsZ_C-terminal-mCherry, was defined by the following Eq (8). When a chemical has a higher inhibitory effect, BR should be lower. BR=NC/NG (8)
Moreover, inhibition % was calculated using the following Eq (9). The inhibition % should be higher when the chemical has a higher inhibitory effect. inhibition%=BRDMSO,GTP(+)−BRchemical,GTP(+)/BRDMSO,GTP(+)×100 (9) where BR DMSO,GTP(+) is the binding ratio in the presence of DMSO (vehicle) and GTP is the control value indicating no inhibition, BR chemical,GTP(+) is the binding ratio in the presence a chemical and GTP. Considering the background, Eq (9) can be shown as follows. inhibition%=(BRDMSO,GTP(+)−BRbackground)−(BRchemical,GTP(+)−BRbackground)/BRDMSO,GTP(+)−BRbackground×100=BRDMSO,GTP(+)−BRchemical,GTP(+)/BRDMSO,GTP(+)−BRbackground×100 (10) where BR background is the binding ratio of the background obtained in the absence of GTP.

[2] = tested on: S. aureus ATCC 29213 (MSSA); assay: Antibiotic susceptibility test (broth microdilution MIC); type: cell-based, Staphylococcus aureus; conditions: for MIC: Staphylococcus aureus, read-out: Minimal inhibitory concentration
Procedure: (§1) Antimicrobial susceptibility testing was performed by broth microdilution in cation-adjusted Mueller–Hinton broth (CAMHB) according to the CLSI guidelines. Overnight culture was suspended in CAMHB, and the OD625 was measured using an Ultrospec 6300 pro spectrophotometer (GE Healthcare). The culture suspension was diluted to 0.01 of the OD625, and 5 μL of it was inoculated into test medium containing the test chemical. Then incubation was performed at 35°C for 16 to 20 hours. The final inoculum size corresponded to ca. 5 x 10^4 CFU per well, which corresponded to ca. 5 x 10^5 CFU/mL. The minimum inhibitory concentration (MIC) endpoint was defined as the lowest concentration of the test chemical that inhibited bacterial growth as detected by the unaided eye.

[3] = tested on: A. baumannii ATCC 19606; assay: as above; type: cell-based; conditions: Acinetobacter baumannii
Procedure: as §1

[4] = tested on: E. coli ATCC 25922; assay: as above; type: cell-based; conditions: Escherichia coli
Procedure: as §1

[5] = tested on: E. faecalis ATCC 29212; assay: as above; type: cell-based; conditions: Enterococcus faecalis
Procedure: as §1

[6] = tested on: E. faecalis SR7914 (VRE); assay: as above; type: cell-based; conditions: Enterococcus faecalis, read-out: Minimal inhibitory concentration
Procedure: as §1

[7] = tested on: E. faecium ATCC 19434; assay: as above; type: cell-based; conditions: Enterococcus faecium
Procedure: as §1

[8] = tested on: E. faecium SR7917 (VRE); assay: as above; type: cell-based; conditions: Enterococcus faecium, read-out: Minimal inhibitory concentration
Procedure: as §1

[9] = tested on: H. influenzae ATCC 10211; assay: as above; type: cell-based; conditions: Haemophilus influenzae
Procedure: as §1

[10] = tested on: K. pneumoniae ATCC 13883; assay: as above; type: cell-based; conditions: Klebsiella pneumoniae
Procedure: as §1

[11] = tested on: P. aeruginosa ATCC 27853; assay: as above; type: cell-based; conditions: Pseudomonas aeruginosa
Procedure: as §1

[12] = tested on: S. aureus SR3637 (MRSA); assay: as above; type: cell-based; conditions: Staphylococcus aureus, read-out: Minimal inhibitory concentration
Procedure: as §1

[13] = tested on: S. pneumoniae Type I; assay: as above; type: cell-based; conditions: Streptococcus pneumoniae, read-out: Minimal inhibitory concentration
Procedure: as §1

[14] = tested on: panel of type strains of Gram-positive and Gram-negative bacterial pathogens; assay: Antibiotic susceptibility test, summary over the whole panel; type: cell-based; conditions: MIC panel of Gram-positive and Gram-negative type strains
Procedure: as §1

[15] = S. aureus ATCC 29213 (MSSA), CAMHB, 35°C, 16 to 20 hours
[16] = ATCC19606, A. baumannii ATCC 19606, CAMHB, 35°C, 16 to 20 hours, read-out: Minimal inhibitory concentration
[17] = ATCC25922, E. coli ATCC 25922, CAMHB, 35°C, 16 to 20 hours, read-out: Minimal inhibitory concentration
[18] = ATCC29212, E. faecalis ATCC 29212, CAMHB, 35°C, 16 to 20 hours, read-out: Minimal inhibitory concentration
[19] = E. faecalis SR7914 (VRE), CAMHB, 35°C, 16 to 20 hours
[20] = ATCC19434, E. faecium ATCC 19434, CAMHB, 35°C, 16 to 20 hours, read-out: Minimal inhibitory concentration
[21] = E. faecium SR7917 (VRE), CAMHB, 35°C, 16 to 20 hours
[22] = ATCC10211, H. influenzae ATCC 10211, CAMHB, 35°C, 16 to 20 hours, read-out: Minimal inhibitory concentration
[23] = ATCC13883, K. pneumoniae ATCC 13883, CAMHB, 35°C, 16 to 20 hours, read-out: Minimal inhibitory concentration
[24] = ATCC27853, P. aeruginosa ATCC 27853, CAMHB, 35°C, 16 to 20 hours, read-out: Minimal inhibitory concentration
[25] = S. aureus SR3637 (MRSA), CAMHB, 35°C, 16 to 20 hours
[26] = S. pneumoniae Type I, CAMHB, 35°C, 16 to 20 hours

Row | SMILES | inhibition % [1] | MIC [2, 15] [µg/mL] | MIC [3, 16] [µg/mL] | MIC [4, 17] [µg/mL] | MIC [5, 18] [µg/mL] | MIC [6, 19] [µg/mL] | MIC [7, 20] [µg/mL] | MIC [8, 21] [µg/mL] | MIC [9, 22] [µg/mL] | MIC [10, 23] [µg/mL] | MIC [11, 24] [µg/mL] | MIC [12, 25] [µg/mL] | MIC [13, 26] [µg/mL] | also measured
1 | COc1ccc(C2C=C(c3ccc(Br)cc3)N=C3NC(NS(C)(=O)=O)=NN32)cc1 (centres unmarked) [Chemical #1] | 88.6 (6.8) % | > 64 | > 64 | > 64 | > 64 | > 64 | > 64 | > 64 | > 64 | > 64 | > 64 | > 64 | > 64 | 
2 | COCCN(CCOC)P1(=O)C=C(c2ccccc2)SC(c2ccccc2)=C1 [Chemical #2] | 69.0 (2.4) % |  |  |  |  |  |  |  |  |  |  |  |  | MIC [2]: 8 µg/mL (≈ 19.3 µM); MIC ([3]; ATCC19606, read-out: Minimal inhibitory concentration): > 64 µg/mL; MIC ([4]; ATCC25922, read-out: Minimal inhibitory concentration): > 64 µg/mL; MIC ([5]; ATCC29212, read-out: Minimal inhibitory concentration): 32 µg/mL (≈ 77 µM); MIC ([6]; VRE): 32 µg/mL (≈ 77 µM); MIC ([7]; ATCC19434, read-out: Minimal inhibitory concentration): > 64 µg/mL; MIC ([8]; VRE): > 64 µg/mL; MIC ([9]; ATCC10211, read-out: Minimal inhibitory concentration): > 64 µg/mL; MIC ([10]; ATCC13883, read-out: Minimal inhibitory concentration): > 64 µg/mL; MIC ([11]; ATCC27853, read-out: Minimal inhibitory concentration): > 64 µg/mL; MIC ([12]; MRSA): 8 µg/mL (≈ 19.3 µM); MIC [13]: 64 µg/mL (≈ 154 µM); antibacterial activity (in words) [14]: inhibited the growth of Staphylococcus spp. and Enterococcus spp; also recorded: no activity against other Gram-positive species or any of the Gram-negative pathogens tested
3 | O=C(NNS(=O)(=O)c1cc(Cl)ccc1Cl)c1cc2c(s1)CCCC2 [Chemical #3] | 68.5 (1.7) % | > 64 | > 64 | > 64 | > 64 | > 64 | > 64 | > 64 | > 64 | > 64 | > 64 | > 64 | > 64 | 
4 | O=C(NNC(=S)NC1CC2CCC1C2)c1cc2ccccc2cc1O (centres unmarked) [Chemical #4] | 64.4 (5.8) % | > 32 | > 32 | > 32 | > 32 | > 32 | > 32 | > 32 | > 32 | > 32 | > 32 | > 32 | > 32 | 
5 | O=C(c1cccc(-n2cnnc2)c1)N1CC2CCC(Cc3cccc(Cl)c3)C2C1 (centres unmarked) [Chemical #5] | 46.7 (11.4) % | > 64 | > 64 | > 64 | > 64 | > 64 | > 64 | > 64 | > 64 | > 64 | > 64 | > 64 | > 64 | 
6 | CS(=O)(=O)NC1=NN2C(=NC(c3ccccc3)=CC2c2ccccc2Cl)N1 (centres unmarked) [Chemical #6] | 40.9 (1.2) % | > 64 | > 64 | > 64 | > 64 | > 64 | > 64 | > 64 | > 64 | > 64 | > 64 | > 64 | > 64 | 
7 | C[C@@H](O)[C@H]1C(=O)N2C(C(=O)O)=C(S[C@@H]3CN[C@H](CNS(N)(=O)=O)C3)[C@H](C)[C@H]12 [Doripenem, reference compound] |  | ≤ 0.063 | 1 (≈ 2.38 µM) | ≤ 0.063 | 1 (≈ 2.38 µM) | 8 (≈ 19 µM) | 8 (≈ 19 µM) | 64 (≈ 152 µM) | 0.125 (≈ 0.297 µM) | 0.125 (≈ 0.297 µM) | 0.5 (≈ 1.19 µM) | 16 (≈ 38 µM) | ≤ 0.063 | Minimal inhibitory concentration [2, 15]: ≦0.063 μg/mL
